In a melting point compilation (Tetko et al.; mined from patent text by program, amines drawn as free bases though some values may be those of a salt):

SMILES | melting point [°C]
O=C1COC(Nc2ccc(C(O)(C(F)(F)F)C(F)(F)F)cc2)=N1 | 272 to 274
O=CCCc1ccc2oc(Cc3ccc4ccccc4c3)nc2c1 | 81 to 82
CCOc1ccnc(CSc2nc3cc4c(cc3[nH]2)C(C)(C)C(=O)C4(C)C)c1C | 175 to 176
C=C(C)c1ccc(C2=NC(=O)C(C)(C(=C)C)N2)nc1 (centres undefined) | 123 to 125
CCCCCCCCCCCCSCCCN(CCO)CCO | 53 to 54
CN1C(=O)C(Cc2ccccc2)(c2ccccc2OCCCCBr)c2ccccc21 (centres undefined) | 174 to 175
COc1cccc(Cl)c1-c1cc2c(c3c1C(=O)NC3=O)c1cc(O)ccc1n2CCCBr | 286 to 288
CC(C)(C)c1cc(C=C(C#N)C#N)cc(I)c1O | 188
CSc1ccc(-c2cc3ncnc(Nc4ccc5[nH]ccc5c4)c3s2)cc1 | 163 to 178
N#Cc1ccc2oc3ncccc3c(=O)c2c1 | 260
CC1=C2c3c(cnc4cc(Cl)ccc34)NC2CCN1 (centres undefined) | 209 to 212
COc1cccc(C(O)C2CCN(CCc3ccc(F)cc3)CC2)c1OC (centres undefined) | 114 to 116
O=C(c1ccco1)c1cc([N+](=O)[O-])ccc1Cl | 93 to 96
C[C@]12CC[C@H](O)CC1=CCC1C2CC[C@@]2(C)C1CC[C@@H]2c1cn(Cc2ccccc2)nn1 (some centres undefined) | 286 to 287
CCCN1CC(O)c2cc(OC)c(OC)c3c2C1Cc1cc(OC)c(OC)cc1-3 (centres undefined) | 153 to 154
Oc1cnn(-c2ccc(Cl)cc2Cl)c1 | 148 to 149
CCN1CCC2(CC1)CN=C(c1cc3cccc(N(C)S(=O)(=O)c4cccs4)c3[nH]1)S2 | 215
Cc1cc(Br)cnc1CCCCNC1=NS(=O)(=O)N=C1N | 219 to 220
O=C1Cc2cccc(Oc3ccccc3)c2O1 | 60 to 61
CCCCOC(=O)c1cccc2nc(CCCC)n(Cc3ccc(-c4ccccc4-c4nnn[nH]4)cc3)c12 | 192 to 193
CCC(O)CC(O)CC (centres undefined) | 60 to 65
O=C1CCC(N2Cc3c(OCc4ccc(Cc5nc6ccccc6[nH]5)cc4)cccc3C2=O)C(=O)N1 (centres undefined) | 203 to 205
O=C1c2cc3ccccc3cc2OC12CC2 | 127 to 129
Clc1cccc2c1CNC(=Nc1ccccc1)CS2 | 150 to 152
COc1ccc(C(C)(CC(C)C)C(=O)NC2CCCCCCCCCCNC2=O)c(S)c1 (centres undefined) | 131 to 136

SMILES | melting point [°C]
CCCCC(O)c1cn(C(c2ccccc2)(c2ccccc2)c2ccccc2)cn1 (centres undefined) | 119 to 120
Nc1ccccc1C(=O)/C=C/c1nccn1C(c1ccccc1)(c1ccccc1)c1ccccc1 | 142 to 144
O=C1Oc2cc(O)ccc2CN1C1CCCCC1 | 193 to 196
CSC1CCn2c(CCc3ccccc3)nc3cccc1c32 (centres undefined) | 62.1 to 74.1
CN(C(=O)CCCOc1ccc2c(c1)CN1CC(=O)NC1=N2)C1CCCCC1 | 243 to 244
C=C(C)CC(OS(C)(=O)=O)C(Cl)(Cl)Cl (centres undefined) | 60 to 61
O=c1oc2ccc(-c3ccc(F)cc3F)cc2c(=O)n1-c1ccc(C(F)(F)F)cc1 | 209 to 210
CSCc1cc(O)cc2cc(-c3ccc(O)cc3)oc12 | 188 to 190
O=C(CCl)[C@H](Cc1ccccc1)N(Cc1ccccc1)Cc1ccccc1 | 45.8 to 46.8
CSC1=Nc2ccccc2C2=NCC(CBr)N12 (centres undefined) | 162 to 163
OC(=Cc1ccccc1)C(O)C(O)C(O)C(O)C(O)=Cc1ccccc1 (centres undefined) | 210
CCCC(COc1noc2ccc(Cl)cc12)NC=O (centres undefined) | 107 to 108
CC1SC(=NO)C(C)(C)NC1=O (centres undefined) | 199 to 202
CCOC(=O)c1c(C(F)(F)F)nsc1SC | 64 to 65
Cc1nnc(-c2ccc3ncn(C4CCN(C(=O)c5ccccc5)CC4)c3c2)o1 | 158 to 159
NC(=O)c1cc(-c2nccs2)[nH]c1C(CC1CCOCC1)c1ccc(S(=O)(=O)C2CC2)cc1 (centres undefined) | 241 to 243
Cc1nn(CC(F)(F)F)c(-c2ccc(F)cc2)c1-c1ccc2c(c1)NC(=O)CO2 | 174
COc1cccc2c1CCC1C(=O)N(C(C)c3ccccc3)C(=O)C21 (centres undefined) | 101 to 103
Cc1ccc(S(=O)(=O)N2CCC(C#N)(c3ccc(Cl)cc3)CC2)cc1 | 202 to 206
CC(C)C[C@H](NC(C)C)C(=O)O | 293 to 296
N#Cc1cc([N+](=O)[O-])[nH]c1-c1ccc(Cl)cc1 | 201 to 206
CC(c1oc2ccccc2c(=O)c1-c1cccc(F)c1)n1nc(-c2cccc(N(C)C)c2)c2c(N)ncnc21 (centres undefined) | 218 to 220
COc1cc2c3c(sc2c(Cl)c1Cl)CCCC3 | 123 to 125
Cn1cncc1C(O)(c1ccc(Cl)cc1)c1ccc2c(c1)C(c1cccc(Cl)c1)OCC(=O)N2 (centres undefined) | 260
CSc1ccc2c3c(cccc13)C(=O)N2 | 167 to 172

Further lines, results first:

melting point [°C] | SMILES
111 to 113 | CNC(=O)c1cc(-c2ccc(OC)c(OC)c2)nn(CC(C)C)c1=O
198 to 201 | CCCCOc1ccc(S(C)(=O)=O)cc1C(=O)Nc1c(C(N)=O)nn(C2CN(C(C)C)C2)c1CC
166 to 168 | COC(=O)C(=CNc1ccc(F)cc1)C(=O)C=Cc1ccc(Cl)cc1
262 to 265 | O=C(O)CN1C(=O)c2ccc(C(=O)O)cc2C1=O
210 | COc1cc(C(=O)Nc2ccc3ccc(Cl)nc3n2)cc(OC)c1OC
188 to 190 | COC(=O)c1cc2nnn(-c3ccccc3)c2nc1OCc1ncnn1C
226 | CC(C)N1C(=O)C(=O)NC1=NC(=NC(=O)OC(C)(C)C)Nc1ccc(Cl)c(Cl)c1
198 | CSc1ccc(-c2ccc(C(=O)Nc3cc4ncc(CN5CCCC5)cc4cc3C)cc2)cc1
171 | CC(=O)c1c(NC(=O)c2ccc(C)cc2)cccc1C(F)(F)F
206 to 207 | CN(CCCNC(=O)c1c(Cl)ccc2nc3ccccc3nc12)CCCNC(=O)c1c(Cl)ccc2nc3ccccc3nc12
147 to 149 | CCOC(=O)c1cnc2c(c(C)nn2-c2ccccn2)c1N
63 to 65 | O=C(O)C(=O)c1ccc(C(F)(F)F)cc1
121 to 123 | O=C(O)CCCCCCCn1cc(-c2ccccc2)c(-c2ccccc2)nc1=O
198 to 200 | CCS(=O)(=O)CCC(=O)NNC(=O)N1Cc2ccccc2Oc2ccc([N+](=O)[O-])cc21
64 to 66 | CC(=O)NC[C@H]1CN(c2ccc(N3CCC(O)CC3)cc2)C(=O)O1
70 | O=C(O)CCCOc1cccc(CCNC(=O)C2Cc3ccccc3N2S(=O)(=O)c2ccc(-c3cccc(C(F)(F)F)c3)cc2)c1 (centres undefined)
141 to 142 | NN(CCO)C(=O)Nc1ccc(Cl)cc1
159 to 161 | COc1ccccc1CC(=O)c1ccc(C(C)C)c(OS(N)(=O)=O)c1C(C)C
66 to 67 | CCC(=O)c1c(SC)sc(C#N)c1CC
157 to 159 | COc1cc(N)c(Cl)cc1C(=O)NCC1CCN(CCCCCC(=O)c2cc3ccccc3s2)CC1
178 to 180 | CC(=O)NC[C@H]1CN(c2ccc(-c3nc(Cn4cccn4)cs3)c(F)c2)C(=O)O1
76.5 to 77.6 | CCn1nc(-c2ccc(OC)cc2)cc(C(=O)OC)c1=O
68 to 72 | CCCc1nn(CC)c(C(=O)O)c1Cc1ccc(-c2ccccc2NS(=O)(=O)C(F)(F)F)cc1
170 to 172 | Cc1c(N2CC(F)C(CN)C2)c(F)cc2c(=O)n(N)c(=O)n(C3CC3)c12 (centres undefined)
89 | C[C@H](NP(=O)(Cc1ccccc1)Cc1ccccc1)C(=O)N1CCC[C@H]1C(=O)N1CCC[C@H]1C(N)=O

melting point [°C] | SMILES
99 to 100 | COc1ccc(C2CCN(C(=O)CCC(=O)c3ccc4c(c3)CCNCC4)CC2)cc1
108 to 118 | CC(C)CC(NC(=O)C(Cc1c[nH]cn1)NC(=O)C(CC(=O)c1ccccc1)Cc1cccc2ccccc12)C(O)C(=O)OC(C)C (centres undefined)
109 to 110 | CCOC(=O)C(=NO)c1cccc(C(=O)c2ccccc2)c1
89 to 91 | COC(=O)c1ccc2c(c1)C(=O)C1(CC1)O2
142 | COc1ccc(CN(C)CCCCc2ccc(NC(=O)c3cccc4c(=O)c5ccccc5n(C)c34)cc2)cc1OC
160 | CCCCc1ccc(OC)c(-c2csc(NC(=O)c3ccc(C(=O)O)cc3)n2)c1
164 to 166 | CC(C)=CCOc1ccc(C(=O)C=Cc2ccccc2)c(O)c1
109 to 111 | CCOC(=O)C(=CNc1cccc(C#N)c1)C(=O)OCC
280 | COC(=O)CCc1cc2cc(Cl)c(Cl)cc2n1S(=O)(=O)c1ccccc1
250 | O=C(O)CNC(=O)C(Cc1ccccc1)P(=O)(O)O (centres undefined)
106 | O=C(NCc1ccccc1)n1c(=O)sc2c(Cl)cccc21
171 to 173 | COc1nc2cc([N+](=O)[O-])c(C)c(C(=O)NCc3ccccc3)c2nc1OC
112 to 114 | CCOC(=O)CCC(=O)[C@H](Cc1ccccc1)NC(=O)c1ccccc1
137 to 138 | Cc1oc(-c2ccccc2)nc1COc1cccc(COc2cc(CCC(=O)O)n(-c3ccccc3)n2)c1
154 to 157 | COC(=O)CCc1cc2cc(Cl)ccc2n1S(=O)(=O)c1ccc(NC(C)=O)cc1
106 to 108 | C#CCNC(=O)N1CC(c2ccc(Cl)c(Cl)c2)C1
75 to 76 | COC(=O)CC(c1ccc(F)cc1)C(C(=O)OC)C(=O)OC (centres undefined)
201 to 202 | CC(=O)Nc1c(I)c(C(=O)O)c(I)c(C(=O)NCC(=O)O)c1I
134 to 136 | CCCc1nc2c(N)nc(C)c(C)c2n1CCCCCS(=O)(=O)c1ccccc1
135 to 139 | COC(=O)c1ccc(OC)cc1S(N)(=O)=O
135 to 137 | C=C1CSC2C(NC(=O)OC(C)(C)C)C(=O)N2C1C(=O)OC(c1ccccc1)c1ccccc1 (centres undefined)
210 to 212 | O=S(=O)(NCCO)c1c[nH]c(-c2ccc(Cl)cc2)n1
163 to 167 | Cc1oncc1C(=O)Nc1ccc(-n2nc(C(F)(F)F)cc2C(F)(F)F)cc1
148 | CC(=O)N(C(C)=O)c1c(OCc2ccccc2)cc(Br)cc1[N+](=O)[O-]
